Laboratory results from US20200290950A1, “ALKAMIDE COMPOUNDS AND USES THEREOF” (NORTH CAROLINA STATE UNIVERSITY, priority 2017, published 2020).

How the values were obtained:
[1] = system: RBL-2H3 cells; experiment: LDH cytotoxicity assay; format: cell-based, rat; settings: overnight treatment
Protocol: FIG. 7. A15 is not cytotoxic to RBL-2H3 cells. RBL-2H3 cells were plated and incubated overnight prior to stimulation. Cells were treated overnight with the indicated concentrations of A15 10 μg/mL cycloheximide as a positive control. Supernatants were collected and analyzed for LDH release using the Pierce LDH Cytotoxicity Kit. […] Statistical analysis was performed using a one-way ANOVA with Dunnett's post-hoc test, ***p<0.001.
RBL-2H3 cells were seeded into 96-well plates and incubated overnight prior to treatment with a range of A15 concentrations or 10 μg/mL cycloheximide. Supernatants were collected after 18 hr and analyzed for lactate dehydrogenase (LDH) activity using the commercially available Pierce LDH Cytotoxicity Assay Kit according to the manufacturer's instructions (Thermo Fisher Scientific). Briefly, in a 96-well plate, 50 μL of supernatant were incubated with 50 μL of reaction mixture containing a tetrazolium salt that is reduced to formazan in the presence LDH for 30 min protected from light. 50 μL of stop solution was added, and the absorbance was read at 490 nm with absorbance at 690 nm subtracted to remove background absorbance. LDH release from vehicle treated cells was used to determine spontaneous LDH release. Additionally, lysis buffer was used to determine maximum LDH release.

[2] = target: cannabinoid type 2 receptor (CB2) (Homo sapiens, UniProt P34972); settings: Raduner et al., 2006; cited from earlier work
[3] = target: T1, TRPA1 (Mus musculus, UniProt Q8BLA8); experiment: Calcium response of DRG neurons to mustard (allyl isothiocyanate); format: cell-based; settings: cultured DRG neurons, fluorescence microscopy
T1 construct: The receptors TRPA1 and TRPV1 are expressed on neurons; from tissue; host or cells: primary dorsal root ganglion neurons from mice
Excerpt: FIG. 11. Calcium response from DRG sensory neurons to alkamide of transient receptors. Mustard a TRPA1-receptor agonist activates DRG neurons in gray (A) and capsaicin, an agonist for TRPV1-receptors in the DRG neurons in red (B). Ligand A15 inhibits both TRPA1 and TRPV1 receptors activation in orange; however, 85Y a synthetic ligand only reduces the inhibition of TRPA1 but not TRPV1 receptors in blue. Total number of neurons (n)=135-145; p≤0.05.
Several different model systems were utilized for these experiments. In one model, dorsal root ganglia were obtained from mice and the neurons cultured in vitro. The neurons were then stimulated in the presence/absence of A15 and YM8-85 and the calcium responses monitored by fluorescence microscopy. In the second model, the alkamides were applied to mouse skin in mineral oil. The reactions of these mice to heat, cold, and tactile stimulation was then compared with mice that had not received treatment with A15. […] Alkamides were applied to sensitized animals and then ear swelling and bouts of scratching were monitored.
In vitro DRG neuron responses. […] Neurons were stimulated with mustard (allyl isothiocyanate) (A) an agonist for the receptor TRPA-1 or capsaicin (B) an agonist for the receptor TRPV-1 and calcium responses were measured in individual neurons by fluorescence microscopy. […]

[4] = system: RBL-2H3 cells; experiment: β-Hexosaminidase release assay (Example 3); format: cell-based, rat
Protocol: FIGS. 21A-21D. The inhibition of degranulation is dependent on the length of the alkamide fatty acid chain. RBL-2H3 cells were plated overnight, stimulated with 1 μM A23187 (FIG. 21A) or 5 ng/mL DNP-BSA (FIG. 21B) for 1 h in the absence or presence of each compound. Graphs display the mean percent β-hex release. Data are presented as the mean of 4 experiments. Percent inhibition of degranulation of A23187 (FIG. 21C) or DNP-BSA (FIG. 21D) using data from A and B, respectively. *P<0.05, **P<0.01, ***P<0.001, one-way ANOVA with Dunnett's post hoc test compared to vehicle (A, B) or A15 (C, D).
RBL-2H3 cells (1.0×10^5 cells) were incubated with or without 0.1 μg/mL of IgE-DNP overnight in a 96 well plate at 37° C. with 5% CO2. The cells were washed with Tyrode's buffer and assayed with few modifications (Kuehn, Radinger, & Gilfillan, 2010). Briefly, IgE-DNP sensitized cells were stimulated 1 hour with 5 ng/mL of DNP-BSA in the absence or presence of each compound and incubated at 37° C. with 5% CO2. For experiments using only A23187 as the stimulant, cells were washed with Tyrode's buffer and stimulated 1 hour with 1 μM A23187 in the absence or presence of each compound and incubated at 37° C. with 5% CO2. The stimulated cells were centrifuged at 1200×g for 5 minutes. The supernatant or cell lysate (30 μL) was incubated with 3.4 mg/mL of p-NAG (10 μL) for 1 hour at 37° C. The reaction was terminated by addition of 0.2 M sodium carbonate (pH 10) and the absorbance was read at OD405 nm on a BioTek Synergy HT microplate reader. The total 3-hexosaminidase released from the cell was calculated as the difference between the OD of the supernatant and blank plus the difference between the OD of the lysate and blank. The percent β-hexosaminidase released from the cell was calculated as the difference between the OD of the supernatant and blank divided by the total β-hexosaminidase released from the cell multiplied by 100: ODsupernatant−ODblank/[(ODlysate−ODblank)+(ODsupernatant−ODblank)]*100.

[5] = system: RAW 264.7 cells; settings: LPS-stimulated RAW 264.7 cells, literature; cited from earlier work
[6] = system: BMMCs; experiment: Toluidine blue staining of granules in BMMCs; format: cell-based, mouse
Protocol: FIG. 2. A15 inhibits granule release from BMMCs. […] BMMCs were cytocentrifuged onto a glass slide, fixed, stained with toluidine blue (1%, pH<1) for 30 min, and washed before observing microscopically. Images were acquired at 400× magnification and are representative.

T1 sequence (Q8BLA8 whole entry): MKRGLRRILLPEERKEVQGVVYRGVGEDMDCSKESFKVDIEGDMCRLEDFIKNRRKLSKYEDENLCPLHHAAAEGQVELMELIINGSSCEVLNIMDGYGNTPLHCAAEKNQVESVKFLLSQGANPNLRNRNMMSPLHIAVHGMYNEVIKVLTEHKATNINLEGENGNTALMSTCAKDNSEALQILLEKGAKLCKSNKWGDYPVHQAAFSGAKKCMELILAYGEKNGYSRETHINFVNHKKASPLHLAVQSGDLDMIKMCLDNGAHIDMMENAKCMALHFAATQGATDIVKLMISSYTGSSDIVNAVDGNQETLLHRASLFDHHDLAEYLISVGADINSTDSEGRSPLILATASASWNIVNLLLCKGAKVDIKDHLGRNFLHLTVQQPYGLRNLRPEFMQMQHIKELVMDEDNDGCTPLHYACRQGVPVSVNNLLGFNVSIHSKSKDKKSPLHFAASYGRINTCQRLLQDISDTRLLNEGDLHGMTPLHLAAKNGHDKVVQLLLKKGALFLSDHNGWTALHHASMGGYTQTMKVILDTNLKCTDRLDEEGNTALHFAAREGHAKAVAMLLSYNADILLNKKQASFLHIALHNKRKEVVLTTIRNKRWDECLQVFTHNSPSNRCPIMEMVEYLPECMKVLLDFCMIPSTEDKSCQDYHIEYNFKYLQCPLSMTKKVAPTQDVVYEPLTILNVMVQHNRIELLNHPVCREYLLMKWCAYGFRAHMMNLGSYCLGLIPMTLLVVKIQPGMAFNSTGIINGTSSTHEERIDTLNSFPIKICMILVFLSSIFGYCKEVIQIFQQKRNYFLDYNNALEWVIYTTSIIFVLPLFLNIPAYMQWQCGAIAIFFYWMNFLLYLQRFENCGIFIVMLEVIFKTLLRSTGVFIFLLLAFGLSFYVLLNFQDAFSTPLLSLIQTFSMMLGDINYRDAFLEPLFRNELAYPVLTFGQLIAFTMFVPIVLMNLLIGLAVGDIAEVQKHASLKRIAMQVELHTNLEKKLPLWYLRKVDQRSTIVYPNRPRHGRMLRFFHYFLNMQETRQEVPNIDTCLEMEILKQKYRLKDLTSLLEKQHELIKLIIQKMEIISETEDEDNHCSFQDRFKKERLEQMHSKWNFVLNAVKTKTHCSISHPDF
Sequence of cannabinoid type 2 receptor (CB2) (P34972 whole entry, species assumed): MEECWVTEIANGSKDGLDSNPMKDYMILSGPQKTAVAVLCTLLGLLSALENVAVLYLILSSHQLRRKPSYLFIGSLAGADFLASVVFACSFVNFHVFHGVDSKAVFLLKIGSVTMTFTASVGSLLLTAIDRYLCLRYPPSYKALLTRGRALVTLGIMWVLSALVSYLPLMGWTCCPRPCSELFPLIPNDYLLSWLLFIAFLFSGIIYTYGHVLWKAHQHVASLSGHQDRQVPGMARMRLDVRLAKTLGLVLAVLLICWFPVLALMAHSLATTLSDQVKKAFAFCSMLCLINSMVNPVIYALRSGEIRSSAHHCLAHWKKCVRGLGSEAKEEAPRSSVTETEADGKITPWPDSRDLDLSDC

CCCCCCC/C=C/C=C/C(=O)NCC(C)C [A15, (2E,4E)-N-Isobutyldodeca-2,4-dienamide]
cytotoxic activity (LDH release) [1]: no significant cytotoxic activity | binding to CB2 [2]: shown to bind | DRG neuron calcium response to mustard (TRPA1 agonist) [3]: inhibit | percent inhibition of degranulation ([4]; 5 ng/mL DNP-BSA, 1 hour): 27% | percent inhibition of degranulation ([4]; 1 μM A23187, 1 hour): 47% | TNF-α production [5]: best inhibitors | toluidine blue staining, compound alone ([6]; 100 μM A15 alone, 30 min): did not noticeably affect staining | A23187-induced reduction of toluidine blue staining (granule release) ([6]; 100 μM A15 with 1 μM A23187, 30 min): blocked
